Data as given in patent publication US10945972B2, “Particulate materials” (Nektar Therapeutics, priority 2002, dated 2021).

Legend:
Assay type in all cases: physicochemical
[1] = Particle size by AeroSizer time-of-flight (Example 1); settings: aerodynamic-equivalent volume mean diameter
Procedure: (§1) PSD measurements were performed using firstly, AEROSIZER® time-of-flight instrument equipped with AERO-[…]® (TSI Inc., Minneapolis. USA) and secondly, laser diffraction sensor Helos with dry-powder air-dispersion system Rodos (Sympatec GmbH. Germany). The volume mean particle diameter, VMD, was obtained for both instruments using software options. In the general case of non-spherical particles, these instruments cannot provide the exact value of VMD, however, the time-of-flight technique gives an aerodynamic-equivalent particle diameter, whereas the laser diffraction method provides the geometric projection-equivalent diameter. These diameters afford the complementary information on PSD and therefore can be used for comparative size analysis.

[2] = Particle size by Helos/Rodos laser diffraction (Example 1); settings: geometric projection-equivalent volume mean diameter
Procedure: as §1

[3] = AEROSIZER time-of-flight of TBS (Example 8); settings: listed as TBS 2
Procedure: The TBS samples were also analysed using an AEROSIZER™ (Amherst Process Instruments, Amherst, Mass., USA), provided with pulse jet disperser, the AERODISPERSER™, to introduce the powders to the instrument. The measurement range of the AEROSIZER™ is nominally from 0.2 to 200 μm of aerodynamic diameter with the standard 750 μm diameter tapered nozzle. The micronized and SEDS™ TBS samples were analyzed for 300 seconds in triplicate using normal deagglomeration conditions, feed rate (5000 particles per second) and medium shear force (0.5 psi).

[4] = Dynamic vapor sorption (Example 8); settings: 25° C.
Procedure: The moisture sorption isotherm of each powder at 25° C. was measured using a dynamic vapour sorption (DVS) instrument made by Surface Measurement Systems, UK. This instrument gravimetrically measures uptake and loss of water vapor on a substrate by means of a recording microbalance with a resolution of ±0.1 μg. In the first step of the experimental run, the sample was dried at 25° C. and 0% relative humidity (RH) for at least 600 minutes to bring the sample to near zero wt % H2O. Then, the instrument was programmed to increase the RH in steps of 5% RH from 0% to 90% RH and decrease the RH in steps of 10% RH from 90% to 0% RH. A criterion of dm/dt=0.005%/min was chosen for the system to hold at each RH step before proceeding to the next RH step. Sample masses between 30 and 100 mg were used in this study. The change in mass (%) is expressed in terms of g H2O per 100 g of dry substance.

[5] = Inverse gas chromatography of TBS (Example 8)
Procedure: An empty GC column was uniformly packed with the powder of interest (TBS). Pre-silanized commercially available straight glass columns of 30 cm length with a 3 mm internal diameter were used in this investigation. The silanation procedure was necessary to minimize active sites on the inner glass surfaces, which strongly interact with polar probes. Each column was packed at the detector end with a small amount of silanised glass wool, was clipped to a stand and powder was added through a glass funnel with the aid of a mechanical column packer (tapping) to improve powder flow and remove any air gaps. […] A. Hewlett Packard 6890 Series Gas Chromatograph (GC) (Hewlett Packard, Penna, USA) oven equipped with an autosampler was used to control the solvent temperature. The 6890 GC data acquisition system was used to record data from a thermal conductivity detector (TCD) and flame ionisation detector (FID) with the instrument modified for IGC by Surface Measurement Systems (SMS), Manchester, UK. The combination of detectors allowed sensitive analysis of both organic vapour elution and water (although RH was not raised above 0% for these experiments).
The whole system was fully automated by control software (SMS iGC Controller v1.3) and the data analyzed using SMS iGC Analysis macros. Prior to analysis, each column was equilibrated at 30° C. and 0% relative humidity (RH) for 5 hours by passing dry helium gas through the column. Helium gas was also used as the carrier gas. Hydrogen and compressed air flow rates were set at 40 and 450 ml min respectively for the FID. The chromatograph injection port was maintained at 80° C., TCD detector at 150° C. and the FID detector at 150° C. Column temperature was set at 30° C. throughout analysis. Data were obtained by flowing helium gas at 10 ml min^−1 through the sinalized glass column packed with a known weight of powdered material and injecting small amounts (concentration P/Po=0.05) of a range of probe vapors with different polarities. The retention times of the probes were measured using SMS iGC Controller v1.3 software, at infinite dilution or near zero surface coverage (equivalent to 10^−4-10^−7 μl of liquid) where retention is independent of the quantity of probe injected. For each sample, two columns were prepared and analysed by employing a method based on standard settings, which allows the precise control and measurement of experimental variables. This is essential in producing meaningful results. The data were used to calculate the dispersive and non-dispersive forces acting at TBS particle surfaces using the method developed by Schultz and co-workers (J. Schultz, L. Lavielle and C. Martin. The role of the interface in carbon fibre-epoxy composites, J. Adhesion, 23, 45-60 (1987)).

VMD (μm) (Time of flight) [1]: 3.4 μm | VMD (μm) (laser diffraction) [2]: 3.43 μm | Aerosizer D4, 3 (μm) [3]: 3.44 μm | γs^D mJm^−2 ([5]; 30° C., 0% RH, listed as TBS 2): 55.05 mJm^−2 | KA ([5]; listed as TBS 2): 0.778 | −ΔGA^SP (kJ/mol) Acetone ([5]; probe acetone, listed as TBS 2): 10.42 kJ/mol | −ΔGA^SP (kJ/mol) Dioxane ([5]; probe dioxane): 14.20 kJ/mol | −ΔGA^SP (kJ/mol) Ethyl acetate ([5]; probe ethyl acetate, listed as TBS 2): 13.76 kJ/mol | −ΔGA^SP (kJ/mol) Toluene ([5]; probe toluene, listed as TBS 2): 2.85 kJ/mol
Compound: CC(C)(C)NCC(O)c1cc(O)cc(O)c1 (stereo not shown) [TSB SEDS, terbutaline sulphate]
moisture uptake compared with micronised sample [4]: slightly higher moisture uptake than the micronised sample
